Assay results as given in ChEMBL document CHEMBL1147713, “Inhibition of trypsin and urokinase by Cbz-amino(4-guanidinophenyl)methanephosphonate aromatic ester derivatives: the influence of the ester group on their biological activity” (Bioorg Med Chem Lett, 2006).

Key:
[1] = target: Urokinase-type plasminogen activator (Homo sapiens, UniProt P00749); experiment: Inhibition of human uPA by chromogenic assay using Cbz-Val-Gly-Arg-pNA as chromogenic substrate
[2] = Inhibition of bovine trypsin by chromogenic assay using Bzl-L-Arg-pNA as chromogenic substrate; set-up: species or system Bos taurus
[3] = Selectivity for trypsin over uPA by chromogenic assay

SMILES: CC(C)(C)c1ccc(OP(=O)(Oc2ccc(C(C)(C)C)cc2)C(NC(=O)OCc2ccccc2)c2ccc(NC(=N)N)cc2)cc1 (centres undefined)
- IC50 [1]: 98 nM
- IC50 ([2]; read-out: IC50): 88 nM
- Ratio IC50 [3]: 0.9

SMILES: CS(=O)(=O)c1ccc(OP(=O)(Oc2ccc(S(C)(=O)=O)cc2)C(NC(=O)OCc2ccccc2)c2ccc(NC(=N)N)cc2)cc1 (centres undefined)
- IC50 [1]: 53 nM
- IC50 ([2]; read-out: IC50): 23000 nM
- Ratio IC50 [3]: 434

SMILES: CC(C)c1ccc(OP(=O)(Oc2ccc(C(C)C)cc2)C(NC(=O)OCc2ccccc2)c2ccc(NC(=N)N)cc2)cc1 (centres undefined)
- IC50 [1]: 208 nM
- IC50 ([2]; read-out: IC50): 61 nM
- Ratio IC50 [3]: 0.29

SMILES: N=C(N)Nc1ccc(C(NC(=O)OCc2ccccc2)P(=O)(Oc2ccc3ccccc3c2)Oc2ccc3ccccc3c2)cc1.O=C(O)C(F)(F)F (centres undefined)
- IC50 [1]: 455 nM
- IC50 [2]: Not Active

SMILES: COc1ccc(OP(=O)(Oc2ccc(OC)cc2)C(NC(=O)OCc2ccccc2)c2ccc(NC(=N)N)cc2)cc1 (centres undefined)
- IC50 [1]: 2600 nM
- IC50 ([2]; read-out: IC50): 251 nM
- Ratio IC50 [3]: 0.1

SMILES: CSc1ccc(OP(=O)(Oc2ccc(SC)cc2)C(NC(=O)OCc2ccccc2)c2ccc(NC(=N)N)cc2)cc1 (centres undefined)
- IC50 [1]: 26 nM
- IC50 ([2]; read-out: IC50): 8.7 nM
- Ratio IC50 [3]: 0.33

SMILES: Cc1ccc(OP(=O)(Oc2ccc(C)cc2)C(NC(=O)OCc2ccccc2)c2ccc(NC(=N)N)cc2)cc1 (centres undefined)
- IC50 [1]: 370 nM
- IC50 ([2]; read-out: IC50): 176 nM
- Ratio IC50 [3]: 0.48

SMILES: CC(C)(C)CC(C)(C)c1ccc(OP(=O)(Oc2ccc(C(C)(C)CC(C)(C)C)cc2)C(NC(=O)OCc2ccccc2)c2ccc(NC(=N)N)cc2)cc1 (centres undefined)
- IC50 [1]: 204 nM
- IC50 ([2]; read-out: IC50): 2310 nM
- Ratio IC50 [3]: 11.3

SMILES: N=C(N)Nc1ccc(C(NC(=O)OCc2ccccc2)P(=O)(Oc2ccccc2)Oc2ccccc2)cc1 (centres undefined)
- IC50 [1]: 532 nM
- IC50 ([2]; read-out: IC50): 112 nM
- Ratio IC50 [3]: 0.21

SMILES: CCc1ccc(OP(=O)(Oc2ccc(CC)cc2)C(NC(=O)OCc2ccccc2)c2ccc(NC(=N)N)cc2)cc1 (centres undefined)
- IC50 [1]: 7800 nM
- IC50 ([2]; read-out: IC50): 17 nM
- Ratio IC50 [3]: 0.002
